Experimental data taken from PubChem BioAssay AID330 (DTP/NCI, 2004).
“And” between values parts separate entries of the source, which are not always exact repeats. Equal values may be shown once. Toxic doses and inconclusive results are not listed. Rule for the calls: active = survival T/C of 150% or more; inactive = T/C below 125% in these data.

Tested on: P388 leukemia ip, CD2F1 mice, survival T/C
Test: NCI In Vivo Anticancer Drug Screen. Data for tumor model P388 Leukemia (intraperitoneal) in CD2F1 (CDF1) mice
Conditions: endpoint: median survival time, higher = longer survival
Procedure, shortened: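 Mice carrying the transplanted tumor received test compound or vehicle. Survival was recorded in each group, and the value is the treated-group measurement divided by that of the vehicle-treated control group.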

[1] = dose: 100.0 mg/kg/injection, schedule: Q01DX009 (ip), vehicle: saline with Tween-80
[2] = dose: 200.0 mg/kg/injection, schedule: Q01DX009 (ip), vehicle: saline with Tween-80
[3] = dose: 60.0 mg/kg/injection, schedule: Q01DX005 (ip), vehicle: saline
[4] = dose: 100.0 mg/kg/injection, schedule: Q01DX001 (ip), vehicle: saline with Tween-80
[5] = dose: 50.0 mg/kg/injection, schedule: Q01DX009 (ip), vehicle: Klucel (hydroxypropylcellulose) (HPC)
[6] = dose: 100.0 mg/kg/injection, schedule: Q01DX009 (ip), vehicle: Klucel (hydroxypropylcellulose) (HPC)
[7] = dose: 200.0 mg/kg/injection, schedule: Q01DX009 (ip), vehicle: Klucel (hydroxypropylcellulose) (HPC)
[8] = dose: 100.0 mg/kg/injection, schedule: Q01DX009 (ip), vehicle: saline
[9] = dose: 200.0 mg/kg/injection, schedule: Q01DX009 (ip), vehicle: saline

Measured: T/C

CS/N=N/N=C(\c1ccccc1)N1CCOCC1
inactive: dose: 60.0 mg/kg/injection, schedule: Q01DX005 (ip), vehicle: saline with Tween-80 103 % of control | dose: 120.0 mg/kg/injection, schedule: Q01DX005 (ip), vehicle: saline with Tween-80 97 % of control

NC(=O)c1ccccc1OC(=O)NCCO
inactive: dose: 50.0 mg/kg/injection, schedule: Q01DX009 (ip), vehicle: saline with Tween-80 106 % of control | [1] 95 % of control | [2] 100 % of control

O=C(C=C(C(F)(F)Cl)C(F)(F)Cl)c1cccs1
inactive: dose: 2.5 mg/kg/injection, schedule: Q04DX003 (ip), vehicle: saline 95 % of control | dose: 5.0 mg/kg/injection, schedule: Q04DX003 (ip), vehicle: saline 100 % of control | dose: 10.0 mg/kg/injection, schedule: Q04DX003 (ip), vehicle: saline 100 % of control

S=P12OCCC(CO1)O2 (stereo unspecified)
inactive: dose: 100.0 mg/kg/injection, schedule: Q04DX003 (ip), vehicle: Klucel (hydroxypropylcellulose) (HPC) 100 % of control | dose: 200.0 mg/kg/injection, schedule: Q04DX003 (ip), vehicle: Klucel (hydroxypropylcellulose) (HPC) 97 % of control | dose: 400.0 mg/kg/injection, schedule: Q04DX003 (ip), vehicle: Klucel (hydroxypropylcellulose) (HPC) 97 % of control

CCOC(=O)C(NC(C)=O)(C(=O)OCC)C1CCCCC1=O (stereo unspecified)
inactive: [3] 108 % of control | dose: 120.0 mg/kg/injection, schedule: Q01DX005 (ip), vehicle: saline 96 % of control | dose: 240.0 mg/kg/injection, schedule: Q01DX005 (ip), vehicle: saline 99 % of control

Cn1c(-c2ccc3c(c2)OCO3)nn(CN2CCOCC2)c1=S
inactive: dose: 50.0 mg/kg/injection, schedule: Q01DX005 (ip), vehicle: Klucel (hydroxypropylcellulose) (HPC) 97 % of control | dose: 100.0 mg/kg/injection, schedule: Q01DX005 (ip), vehicle: Klucel (hydroxypropylcellulose) (HPC) 100 % of control | dose: 200.0 mg/kg/injection, schedule: Q01DX005 (ip), vehicle: Klucel (hydroxypropylcellulose) (HPC) 107 % of control

CCCN(CCC)C(C)C(O)c1cccc2ccccc12 (stereo unspecified)
inactive: dose: 50.0 mg/kg/injection, schedule: Q01DX005 (ip), vehicle: saline 97 % of control | dose: 100.0 mg/kg/injection, schedule: Q01DX005 (ip), vehicle: saline 109 % of control

O=[N+]([O-])c1ccc2nc(N/N=C/COC/C=N/Nc3nc4ccc([N+](=O)[O-])cc4s3)sc2c1
inactive: dose: 100.0 mg/kg/injection, schedule: Q01DX001 (ip), vehicle: saline 94 % of control | dose: 200.0 mg/kg/injection, schedule: Q01DX001 (ip), vehicle: saline 104 % of control | dose: 400.0 mg/kg/injection, schedule: Q01DX001 (ip), vehicle: saline 96 % of control

S=P1(Sc2ccccc2)Oc2ccccc2O1
inactive: dose: 12.5 mg/kg/injection, schedule: Q01DX001 (ip), vehicle: saline with Tween-80 99 % of control | dose: 25.0 mg/kg/injection, schedule: Q01DX001 (ip), vehicle: saline with Tween-80 100 % of control | dose: 50.0 mg/kg/injection, schedule: Q01DX001 (ip), vehicle: saline with Tween-80 106 % of control | [4] 90 % of control

C(=Nc1ccc(N=Cc2ccccc2P(c2ccccc2)c2ccccc2)cc1)c1ccccc1P(c1ccccc1)c1ccccc1
inactive: [5] 99 % of control | [6] 99 % of control | [7] 99 % of control

COc1cc2c(cc1OC)-c1ccccc1COC2=O
inactive: dose: 100.0 mg/kg/injection, schedule: Q04DX002 (ip), vehicle: saline with Tween-80 102 % of control | dose: 200.0 mg/kg/injection, schedule: Q04DX002 (ip), vehicle: saline with Tween-80 93 % of control | dose: 400.0 mg/kg/injection, schedule: Q04DX002 (ip), vehicle: saline with Tween-80 92 % of control

CCSC(C(OC(C)=O)C(OC(C)=O)C(COC(C)=O)OC(C)=O)n1cnc2c(=S)nc[nH]c21 (stereo unspecified)
inactive: [4] 101 % of control | dose: 200.0 mg/kg/injection, schedule: Q01DX001 (ip), vehicle: saline with Tween-80 93 % of control | dose: 400.0 mg/kg/injection, schedule: Q01DX001 (ip), vehicle: saline with Tween-80 87 % of control

CSc1nc(N)c2cnn(C3OC(CO)C(O)C3O)c2n1 (stereo unspecified)
inactive: dose: 50.0 mg/kg/injection, schedule: Q01DX005 (ip), vehicle: saline with Tween-80 100 % of control | dose: 100.0 mg/kg/injection, schedule: Q01DX005 (ip), vehicle: saline with Tween-80 109 % of control | dose: 200.0 mg/kg/injection, schedule: Q01DX005 (ip), vehicle: saline with Tween-80 100 % of control

O=C(c1ccccc1)C12CCC(CC1)CC2
inactive: [5] 94 % of control | [6] 94 % of control | [7] 109 % of control

CCCCCC[N+]1([O-])CC[N+]([O-])(CCCCCC)CC1 (stereo unspecified)
inactive: dose: 15.0 mg/kg/injection, schedule: Q01DX005 (ip), vehicle: saline 101 % of control | dose: 30.0 mg/kg/injection, schedule: Q01DX005 (ip), vehicle: saline 102 % of control | [3] 102 % of control and 103 % of control

O=C1c2ccccc2C(Br)CCC1Br (stereo unspecified)
inactive: dose: 100.0 mg/kg/injection, schedule: Q01DX009 (ip), vehicle: distilled water + Tween-80 + alcohol 115 % of control | dose: 200.0 mg/kg/injection, schedule: Q01DX009 (ip), vehicle: distilled water + Tween-80 + alcohol 115 % of control | dose: 400.0 mg/kg/injection, schedule: Q01DX009 (ip), vehicle: distilled water + Tween-80 + alcohol 113 % of control

C#CC(C(O)c1ccccc1)N1CCOCC1 (stereo unspecified)
inactive: dose: 100.0 mg/kg/injection, schedule: Q04DX003 (ip), vehicle: saline 104 % of control | dose: 200.0 mg/kg/injection, schedule: Q04DX003 (ip), vehicle: saline 102 % of control | dose: 400.0 mg/kg/injection, schedule: Q04DX003 (ip), vehicle: saline 101 % of control

CCCn1c(=S)[nH]c2ccccc2c1=O
inactive: [1] 95 % of control | dose: 100.0 mg/kg/injection, schedule: Q04DX003 (ip), vehicle: saline with Tween-80 100 % of control | [2] 90 % of control | dose: 200.0 mg/kg/injection, schedule: Q04DX003 (ip), vehicle: saline with Tween-80 91 % of control | dose: 400.0 mg/kg/injection, schedule: Q01DX009 (ip), vehicle: saline with Tween-80 100 % of control | dose: 400.0 mg/kg/injection, schedule: Q04DX003 (ip), vehicle: saline with Tween-80 91 % of control

COc1ccc(OC)c(CC=C(C)C)c1
inactive: dose: 15.25 mg/kg/injection, schedule: Q01DX009 (ip), vehicle: Klucel (hydroxypropylcellulose) (HPC) 100 % of control | dose: 30.5 mg/kg/injection, schedule: Q01DX009 (ip), vehicle: Klucel (hydroxypropylcellulose) (HPC) 97 % of control | dose: 61.0 mg/kg/injection, schedule: Q01DX009 (ip), vehicle: Klucel (hydroxypropylcellulose) (HPC) 107 % of control | dose: 122.0 mg/kg/injection, schedule: Q01DX009 (ip), vehicle: Klucel (hydroxypropylcellulose) (HPC) 100 % of control

CSC(=S)N/N=C(\C)c1ccccc1
inactive: dose: 1.56 mg/kg/injection, schedule: Q01DX009 (ip), vehicle: saline 99 % of control | dose: 3.12 mg/kg/injection, schedule: Q01DX009 (ip), vehicle: saline 100 % of control | dose: 6.25 mg/kg/injection, schedule: Q01DX009 (ip), vehicle: saline 94 % of control and 97 % of control | [8] 98 % of control | [9] 90 % of control

OC(Cc1ccccc1)c1ccccc1 (stereo unspecified)
inactive: dose: 31.25 mg/kg/injection, schedule: Q01DX009 (ip), vehicle: saline + Tween-80 + alcohol 107 % of control | dose: 62.5 mg/kg/injection, schedule: Q01DX009 (ip), vehicle: saline + Tween-80 + alcohol 100 % of control | dose: 100.0 mg/kg/injection, schedule: Q01DX009 (ip), vehicle: suspension in saline 104 % of control | dose: 125.0 mg/kg/injection, schedule: Q01DX009 (ip), vehicle: saline + Tween-80 + alcohol 98 % of control | dose: 200.0 mg/kg/injection, schedule: Q01DX009 (ip), vehicle: suspension in saline 98 % of control | dose: 250.0 mg/kg/injection, schedule: Q01DX009 (ip), vehicle: saline + Tween-80 + alcohol 102 % of control | dose: 400.0 mg/kg/injection, schedule: Q01DX009 (ip), vehicle: suspension in saline 98 % of control

O=C(O)CCCCCCCCCO
inactive: dose: 25.0 mg/kg/injection, schedule: Q01DX009 (ip), vehicle: saline 109 % of control | dose: 50.0 mg/kg/injection, schedule: Q01DX009 (ip), vehicle: saline 115 % of control | [8] 100 % of control | [9] 100 % of control
